Columns and labels:
Test in all cases: relative viability (nuclei count vs DMSO), 5 days (fraction); higher = more cells survive
XMD13-2 + AZD7762 = compound: C1CC1C(=O)NC2=NNC3=C2C=CC(=C3)C4=CC(=CC=C4)C(=O)NC5CC5 [XMD13-2] + NC(=O)Nc1cc(-c2cccc(F)c2)sc1C(=O)N[C@H]1CCCNC1 [AZD7762] (partner 0.2 µM)
How it was run: (§1)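 Five library-drug doses in √10 steps were combined with a fixed anchor-drug dose, or a single drug was given alone, by pin tool to lung cancer cell lines in 1536-well plates the day after seeding. Nuclei were stained and counted after 5 days. Relative viability is the nuclei count in treated wells over that in vehicle wells, taken as the median of duplicate plates.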

[1] = compound: Cc1ccc(C(=O)Nc2cccc(C(F)(F)F)c2)cc1Nc1cncc(C(N)=O)c1 [ALW-II-49-7] + CC(=O)c1c(C)c2cnc(Nc3ccc(N4CCNCC4)cn3)nc2n(C2CCCC2)c1=O [Palbociclib] (partner 0.5 µM)
How it was run: as §1

ALW-II-49-7 + Foretinib = compound: Cc1ccc(C(=O)Nc2cccc(C(F)(F)F)c2)cc1Nc1cncc(C(N)=O)c1 [ALW-II-49-7] + COc1cc2c(Oc3ccc(NC(=O)C4(C(=O)Nc5ccc(F)cc5)CC4)cc3F)ccnc2cc1OCCCN1CCOCC1 [Foretinib] (partner 0.25 µM)
How it was run: as §1

XMD13-2 + Luminespib = compound: C1CC1C(=O)NC2=NNC3=C2C=CC(=C3)C4=CC(=CC=C4)C(=O)NC5CC5 [XMD13-2] + CCNC(=O)c1noc(-c2cc(C(C)C)c(O)cc2O)c1-c1ccc(CN2CCOCC2)cc1 [Luminespib] (partner 0.01 µM)
How it was run: as §1

Row | Cell Line | relative viability (XMD13-2 + AZD7762; first compound 0.05 µM) | relative viability (XMD13-2 + AZD7762; first compound 0.1581 µM) | relative viability (XMD13-2 + AZD7762; first compound 0.5 µM) | relative viability (XMD13-2 + AZD7762; first compound 1.581 µM) | relative viability (XMD13-2 + AZD7762; first compound 5 µM) | relative viability ([1]; first compound 0.08 µM) | relative viability ([1]; first compound 0.253 µM) | relative viability ([1]; first compound 0.8 µM) | relative viability ([1]; first compound 2.53 µM) | relative viability ([1]; first compound 8 µM) | relative viability (ALW-II-49-7 + Foretinib; first compound 0.08 µM) | relative viability (ALW-II-49-7 + Foretinib; first compound 0.253 µM) | relative viability (ALW-II-49-7 + Foretinib; first compound 2.53 µM) | relative viability (ALW-II-49-7 + Foretinib; first compound 8 µM) | relative viability (XMD13-2 + Luminespib; first compound 0.05 µM) | relative viability (XMD13-2 + Luminespib; first compound 0.1581 µM) | relative viability (XMD13-2 + Luminespib; first compound 0.5 µM) | relative viability (XMD13-2 + Luminespib; first compound 1.581 µM) | relative viability (XMD13-2 + Luminespib; first compound 5 µM) | relative viability (ALW-II-49-7 + Foretinib; first compound 0.8 µM)
1 | HCC-78 | 0.763 | 0.973 | 0.557 | 0.475 | 0.705 | 0.434 | 0.47 | 0.488 | 0.509 | 0.416 | 0.524 | 0.487 | 0.528 | 0.586 | – | – | – | – | – | –
2 | NCI-H1792 | 0.854 | 0.78 | 0.762 | 0.634 | 0.846 | 0.564 | 0.454 | 0.471 | 0.522 | 0.548 | – | – | – | – | 0.25 | 0.462 | 0.447 | 0.571 | 0.377 | –
3 | NCI-H1648 | 0.604 | – | 0.564 | 0.633 | 0.565 | 0.241 | 0.251 | 0.264 | 0.246 | 0.251 | – | – | – | – | – | – | – | – | – | –
4 | EBC-1 | – | – | – | – | – | – | – | – | – | – | 0.0976 | 0.11 | 0.0988 | 0.114 | – | – | – | – | – | 0.098
5 | NCI-H1650 | – | – | – | – | – | 0.328 | 0.314 | 0.338 | 0.397 | 0.41 | 1.04 | 1.18 | 1.05 | 1.13 | 0.187 | 0.21 | 0.209 | 0.19 | 0.21 | 1.08
6 | SW 1573 | – | – | – | – | – | 0.347 | 0.489 | 0.373 | 0.347 | 0.319 | 0.92 | 0.729 | 1.19 | 1.02 | 0.276 | 0.239 | 0.308 | 0.188 | 0.213 | 0.945
7 | NCI-H1299 | – | – | – | – | – | – | – | – | – | – | 1.09 | 1.16 | 0.996 | 0.965 | – | – | – | – | – | 1.09
8 | SK-LU-1 | – | – | – | – | – | 0.332 | 0.35 | 0.337 | 0.26 | 0.323 | 0.894 | 0.895 | 0.797 | 0.592 | 0.217 | 0.239 | 0.227 | 0.194 | 0.211 | 0.923
9 | COR-L23 | – | – | – | – | – | 0.276 | 0.271 | 0.245 | 0.274 | 0.259 | 1.1 | 1.09 | 0.913 | 0.945 | 0.883 | 0.581 | 0.592 | 0.769 | 0.607 | 0.903
10 | A549 | – | – | – | – | – | – | – | – | – | – | 0.918 | 0.92 | 0.961 | 0.824 | – | – | – | – | – | 0.78
11 | NCI-H2023 | – | – | – | – | – | 0.325 | 0.344 | 0.36 | 0.4 | 0.428 | 0.841 | 1.02 | 1.02 | 1.09 | 0.884 | 0.703 | 0.954 | 0.712 | 0.913 | 0.966
12 | NCI-H596 | 1.14 | 0.945 | 1.09 | 1.18 | 1.2 | – | – | – | – | – | 0.949 | 0.902 | 0.841 | 0.937 | 0.987 | 1 | 0.909 | 0.903 | 1.2 | 0.886
13 | IA-LM | – | – | – | – | – | – | – | – | – | – | 1.06 | 0.999 | 1.02 | 0.416 | – | – | – | – | – | 1.28
14 | NCI-H2009 | – | – | – | – | – | 0.211 | 0.264 | 0.242 | 0.203 | 0.199 | 1.18 | 1.31 | 0.895 | 1.11 | 1.01 | 1.01 | 1.01 | 1.02 | 1.19 | 1.17

Reference: the supplement of paper PMC10307832
